Data as given in US20080221070A1, “METHODS AND COMPOUNDS FOR THE TARGETED DELIVERY OF AGENTS TO BONE FOR INTERACTION THEREWITH” (priority 2007, published 2008).

Tests used:
[1] = Body weight of OVX rats during treatment; format: in vivo, Sprague-Dawley female rats
Method: (§1) Animals. Six month old, bilaterally ovariectomized (OVX) or sham operated Sprague-Dawley female rats (Harlan Laboratories, Indianapolis, Ind.) were maintained at the University of Louisville Research Resources Center at 22° C. with a 12-h light/dark cycle and ad libitum access to tap water and rodent chow (Purina Laboratory Rodent Diet 5001). All animal procedures were approved by the Institutional Animal Care and Use Committee, which is certified by the American Association for Accreditation of Laboratory Animal Care.
(§2) In vivo experiments were conducted in order to investigate the efficacy of compounds of the presently-disclosed subject matter. In all of the experiments, OVX and sham operated rats were randomly divided into groups of 5-7 animals. In all of the studies experimental groups included: i) Sham-operated control (euthanized six weeks post surgery as a pretreatment control), ii) OVX control (euthanized six weeks post surgery as a pretreatment control), iii) Sham control receiving vehicle, iv) OVX control receiving vehicle, v) OVX receiving 17-ethinyl estradiol (equimolar concentration with a selected test compound), vi) OVX receiving alendronate (1.6 mg/kg), and vii) OVX receiving parathyroid hormone 1-34 (PTH) (80 μg/kg). 17-ethinyl estradiol (17 EE) is a free estrogenic agent known to be orally active, and can serve as an example of an anti-catabolic agent. Alendronate (Alen) is a bisphosphonate that is currently used to treat osteoporosis (e.g., Fosamax®, Merck & Co., Inc,), and can serve as an example of an anti-catabolic agent. Parathyroid hormone 1-34 (PTH) is an agent that can serve as an example of an anabolic agent. All compounds and vehicle (1% DMSO in corn oil) were administered three times per week orally by gavage except for PTH which was administered via a subcutaneous injection in a volume of 0.5 ml/kg body mass thrice per week. Compound administration was initiated 6 weeks following surgery and lasted for 6 weeks (18 doses total).
(§3) Compounds of the presently-disclosed subject matter were orally administered to OVX rats at various doses. As indicated above all BTE's were administered three times per week for 6 weeks.
(§4) Following 6 weeks of treatment, blood was obtained from each animal via cardiac puncture following an overnight fast and animals were subsequently euthanized via carbon dioxide asphyxiation. Blood was centrifuged immediately and the obtained serum samples were aliquoted and stored at −70° C. prior to analysis. Uteri were removed and fresh weights were obtained. Uterine masses were normalized to body mass at the end of the experiment. The left and right femora and left and right tibiae were subsequently collected from each animal, cleaned of soft tissue, and stored in saline at 4° C. prior to analysis.
Uterine Mass and Body Weight. […]

[2] = test system: bilaterally ovariectomized (OVX) rats; assay: Uterine mass and uterine mass to body weight ratio in OVX rats; format: in vivo, Sprague-Dawley female rats; conditions: for effect on uterine mass to body weight ratio: FIG. 9
Method: as §1, §2, §3, §4
Uterine Mass and Body Weight. […] Uterine mass can be used to as a measure of estrogenic effect occurring in a tissue outside the bone in response to treatment with a test compound or composition. Generally, a lower uterine mass can be associated with a decreased risk of adverse side effects associated with the test compound or composition. A ratio of uterine mass to body weight can be used to correct for any increase in uterine size attributable to the relative size of the individual animal. Body weight and/or uterine mass also serve as an indirect measures of toxicity of a test compound.

[3] = test system: bilaterally ovariectomized (OVX) rats; assay: Lipid metabolism (total cholesterol, HDL, LDL) in rat serum; format: in vivo, Sprague-Dawley female rats; conditions: present-tense statement, no data
Method: as §1
(§5) In vivo experiments were conducted in order to investigate the efficacy of compounds of the presently-disclosed subject matter. In all of the experiments, OVX and sham operated rats were randomly divided into groups of 5-7 animals. […]
Quantitative Determination of Lipid Metabolism (Total Cholesterol HDL, and LDL) in Rat Serum. Total cholesterol, high-density lipoprotein (HDL), and low-density lipoprotein (LDL) were quantitatively determined in the serum of rats in order to evaluate the extraosseous effects of estrogen treatment on lipid metabolism. […]

[4] = test system: bilaterally ovariectomized (OVX) rats; assay: Femoral density via Archimedes' Principle (whole bone); format: in vivo, Sprague-Dawley female rats; conditions: right femora
Method: as §1, §2
(§6) Following 6 weeks of treatment, blood was obtained from each animal via cardiac puncture following an overnight fast and animals were subsequently euthanized via carbon dioxide asphyxiation. Blood was centrifuged immediately and the obtained serum samples were aliquoted and stored at −70° C. prior to analysis. Uteri were removed and fresh weights were obtained. […]
Femoral Density via Archimedes' Principle. […] Densities were determined using Archimedes' Principle according to the following formula: density=[mass of hydrated femur/(mass of hydrated femur−mass of hydrated femur submerged in water)]×density of distilled water at a given temperature (See Keenan, et al. Comparison of bone density measurement techniques: DXA and Archimedes' principle. J Bone Miner Res 1997; 12:1903-7.). […]

[5] = test system: bilaterally ovariectomized (OVX) rats; assay: Regional femoral density via Archimedes' Principle; format: in vivo, Sprague-Dawley female rats
Method: as §1, §2
as §6, with “obtained. Uterine masses were normalized to body mass at the end of the experiment.” for “obtained.”
Regional Femoral Density via Archimedes' Principle. […] Briefly, each femur was measured with a Cen-Tech Digital Caliper and a cut was made from each end at 20% of the length of the femur plus half the width of the blade. Subsequently, the bone marrow was washed out of the femoral diaphysis and the Archimedes density for each of the three femoral regions was determined as described above.

[6] = test system: bilaterally ovariectomized (OVX) rats; assay: Volume fraction, ex vivo micro-computed tomography of tibia; format: in vivo, Sprague-Dawley female rats; conditions: for bone density by trabecular volume fraction: ex vivo micro-CT, compared to OVX animals, FIG. 14; for bone density in three-dimensional micro-CT images: reconstructed images, FIG. 15
Method: as §1, §2, §4
Volume Fraction—Ex vivo micro-computed tomography (μCT). Volume fraction is a representative value for the amount of bone that occupies a given volume or space. […]

[7] = test system: bilaterally ovariectomized (OVX) rats; assay: Bone mechanical competence indentation test; format: in vivo, Sprague-Dawley female rats; conditions: proximal tibial metaphysis, present-tense statement, no data
Method: as §1
(§7) In vivo experiments were conducted in order to investigate the efficacy of compounds of the presently-disclosed subject matter. In all of the experiments, OVX and sham operated rats were randomly divided into groups of 5-7 animals. In all of the studies experimental groups included: i) Sham-operated control (euthanized six weeks post surgery as a pretreatment control), ii) OVX control (euthanized six weeks post surgery as a pretreatment control), iii) Sham control receiving vehicle, iv) OVX control receiving vehicle, v) OVX receiving 17-ethinyl estradiol (equimolar concentration with a selected test compound), vi) OVX receiving alendronate (1.6 mg/kg), and vii) OVX receiving parathyroid hormone 1-34 (PTH) (80 μg/kg). 17-ethinyl estradiol (17 EE) is a free estrogenic agent known to be orally active, and can serve as an example of an anti-catabolic agent. […]

[8] = test system: bilaterally ovariectomized (OVX) rats; assay: RatLaps ELISA for C-telopeptide fragments of collagen type I (CTX-I) in serum; format: in vivo, Sprague-Dawley female rats; conditions: Formulas 66 and 67 at 250 μg/kg doses, 17-ethinyl estradiol equimolar, FIG. 16
Method: as §1
as §7, with “agent. Alendronate (Alen) is a bisphosphonate that is currently used to treat osteoporosis (e.g., Fosamax®, Merck & Co., Inc,), and can serve as an example of an anti-catabolic agent. Parathyroid hormone 1-34 (PTH) is an agent that can serve as an example of an anabolic agent.” for “agent.”
RatLaps™ ELISA for C-telopeptide Fragments of Collagen Type I (CTX-I). […] Bone resorption (CTX-I) was quantitatively assessed in rat serum using the commercially available RatLaps™ ELISA KIT from Nordic Bioscience Diagnostics A/S (Herlev, Denmark) as recommended by the manufacturer.

[9] = test system: bilaterally ovariectomized (OVX) rats; assay: Rat Osteocalcin EIA (serum); format: in vivo, Sprague-Dawley female rats; conditions: versus OVX controls; FIG. 17
Method: as §1, §5
Rat Osteocalcin EIA. […] Rat serum osteocalcin levels were measured using the Rat Osteocalcin EIA Kit from Biomedical Technologies, Incorporated (Stoughton, Mass.) as recommended by the manufacturer.

ICR Swiss mice = assay: Periosteal bone formation in mouse calvarial injection model; format: in vivo; conditions: subcutaneous over calvariae; histomorphometry; present-tense statement, no data
Method: Stimulation of Periosteal Bone Formation in a Mouse Calvarial Injection Model. The anabolic (bone formation) potential of compounds of the presently-disclosed subject matter are evaluated in the mouse calvarial injection model. Briefly, 4-week-old ICR Swiss mice are injected subcutaneously over the surface of the calvariae with compounds of the presently-disclosed subject matter at concentrations of 0, 1, 3, and 10 mg/kg/day for 5 days (twice a day). Microtubule inhibitor TN-16 (5 mg/kg/day for 2 days, twice a day) are used as a positive control. Mice are sacrificed two weeks after the injections are completed. Dissected calvarial samples are fixed in 10% phosphate-buffered formalin for 2 days, decalcified in 10% EDTA for 2 weeks and then embedded in paraffin. Histological sections are cut and stained with H&E and orange G. New woven bone formation (new bone area) is quantified by histomorphometry using the OsteoMeasure system (OsteoMetrics Inc., Atlanta, Ga.).

[10] = Hydroxyapatite (HA) Binding Assay; conditions: binding to hydroxyapatite; 10^−5 M analyte, 50 mM Tris-HCl pH 7.4, 1% DMSO; tetracycline reference
Excerpt: The supernatant was transferred to another microcentrifuge tube.

[11] = oral 25 or 250 μg/kg, 3 times per week for 6 weeks, FIG. 7
[12] = OVX rats, oral, test compounds 25 or 250 μg/kg, 17-ethinyl estradiol equimolar, 3 times per week for 6 weeks, FIG. 8
[13] = OVX rats, oral, test compounds 25 or 250 μg/kg, 17-ethinyl estradiol equimolar, 3 times per week for 6 weeks
[14] = proximal and distal left femur and left femoral diaphysis, oral 25 or 250 μg/kg, FIGS. 11, 12, 13
[15] = oral 3 times per week for 6 weeks, FIG. 1
[16] = proximal and distal left femur, FIGS. 5 and 6

Row | Structure (SMILES) | effect on body weight [1, 11] | effect on uterine mass [2, 12] | effect on uterine mass to body weight ratio [2, 13] | effect on lipid metabolism [3] | whole bone density ([4]; oral 25 or 250 μg/kg, FIG. 10) | regional bone density [5, 14] | bone density by trabecular volume fraction [6] | bone density in three-dimensional micro-CT images [6] | bone strength [7] | production of CTX-I (bone resorption) [8] | serum osteocalcin levels [9] | new bone area (ICR Swiss mice) | effect on body weight [1, 15] | effect on uterine mass ([2]; rat, in vivo, po) | whole bone density ([4]; FIG. 4) | regional bone density [5, 16] | Binding Index [10]
1 | COc1ccc(NC(=O)CCO[C@@H]2CCC3C4CCc5cc(OP(=O)(OCc6ccccc6)OCc6ccccc6)ccc5C4CC[C@]32C)c(O)c1C(N)=O (stereo partly drawn) [Formula 67] | limited or no effect | limited or no effect | limited or no effect | limited or no effect | in the same ranges as those animals receiving 17-ethinyl estradiol (17 EE), Alendronate (Alen), or Parathyroid hormone 1-34 (PTH) | increased | increased | affected an increase | increase | do not inhibit | lower than in OVX controls | increase | – | – | – | – | –
2 | C#C[C@]1(O)CC[C@H]2[C@@H]3CCc4cc(O)ccc4[C@H]3CC[C@@]21C [17-ethinyl estradiol, reference compound] | – | induced an increase | induced an increase | – | – | – | – | – | – | decreased the production of CTX-1 to below sham levels | – | – | – | – | – | – | –
3 | COc1ccc(N)c(O)c1C(N)=O [BTA-2] | – | – | – | – | – | – | – | – | – | – | – | – | no effect | no effect | not significantly effected | not significantly effected | –
4 | C[C@]12CC[C@@H]3c4ccc(O)cc4CC[C@H]3[C@@H]1CC[C@@H]2O [17,β-estradiol] | – | – | – | – | – | – | – | – | – | – | – | – | – | – | – | – | −8
5 | CCCCOP(=O)(OCCCC)Oc1ccc2c(c1)CCC1C2CC[C@]2(C)C1CC[C@H]2OCCC(=O)Nc1ccc(OC)c(C(N)=O)c1O (stereo partly drawn) [Formula 66] | limited or no effect | limited or no effect | limited or no effect | limited or no effect | in the same ranges as those animals receiving 17-ethinyl estradiol (17 EE), Alendronate (Alen), or Parathyroid hormone 1-34 (PTH) | increased | increased | affected an increase | increase | do not inhibit | lower than in OVX controls | increase | – | – | – | – | –
6 | NC(=O)c1c(OCc2ccccc2)ccc(N)c1O [BTA-3] | – | – | – | – | – | – | – | – | – | – | – | – | no effect | no effect | not significantly effected | not significantly effected | –
